Usually inhibition stands for the drop in the measured response relative to a control, in per cent.

Activity calls are given as the source filed them. No cut-off for these calls is given here.

Data set [1] relates to THP-1. Kind of data set: Inhibition of TNF-alpha secretion in LPS-stimulated human THP1 cells assessed as TNF-alpha level at 10 uM incubated for 1 hr followed by nigericin addition and measured after 1 hr by ELISA (reference value: 957.6 pg/mL). The format is functional. For orientation: In an ELISA, binding on a coated surface is turned into a signal by an enzyme label.
Data set [2] can be described thus: Cytotoxicity against human THP1 cells assessed as cell viability at 0.1 uM after 24 hrs by CellTiter-Glo luminescent cell viability assay relative to control. The data set is classed as cell-based. Conditions: THP-1 cells, read-out: Activity.
A short description of data set [3]: Cytotoxicity against human THP1 cells assessed as cell viability at 1 uM after 24 hrs by CellTiter-Glo luminescent cell viability assay relative to control. The format is cell-based. To be noted: THP-1 cells, read-out: Activity. Background: ATP-based viability assays read luminescence as a measure of living cells.
Data set [4] can be described thus: Cytotoxicity against human THP1 cells assessed as cell viability at 10 uM after 24 hrs by CellTiter-Glo luminescent cell viability assay relative to control. The format is cell-based. Conditions: THP-1 cells, read-out: Activity.
A short description of data set [5]: Cytotoxicity against human THP1 cells assessed as cell viability at 100 uM after 24 hrs by CellTiter-Glo luminescent cell viability assay relative to control. The data set is classed as cell-based. Conditions: THP-1 cells, read-out: Activity.
Data set [6] in a line: Cytotoxicity against human THP1 cells assessed as cell viability at 0.1 to 100 uM after 24 hrs in presence of LPS by CellTiter-Glo luminescent cell viability assay relative to control. The format is cell-based. Conditions: THP-1 cells, read-out: Activity.
In data set [7] the test system is THP-1. As to the kind of experiment: Antiinflammatory activity in LPS-induced human THP1 cells assessed as IL-1beta secretion at 10 uM incubated for 1 hr followed by LPS stimulation and measured after 24 hrs by ELISA (reference value: 51.2 pg/mL). The data set is classed as functional.
Data set [8] deals with THP-1. As to the kind of experiment: Antiinflammatory activity in human THP1 cells assessed as reduction in LPS-induced IL-1beta secretion at 0.1 to 10 uM incubated for 1 hr followed by LPS stimulation and measured after 24 hrs by ELISA. The data set is classed as functional, cell-based.
Data set [9] has as its target NACHT, LRR and PYD domains-containing protein 3 (Homo sapiens) (UniProt Q96P20). Kind of data set: Inhibition of NLRP3 inflammasome activation in LPS-stimulated human THP1 cells assessed as reduction in IL-1beta secretion at 0.1 uM incubated for 1 hr followed by nigericin addition and measured after 1 hr by ELISA relative to control. The data set is classed as cell-based. To be noted: THP-1.

Data set [10] has the same target. Kind of data set: Inhibition of NLRP3 inflammasome activation in LPS-stimulated human THP1 cells assessed as reduction in IL-1beta secretion at 1 uM incubated for 1 hr followed by nigericin addition and measured after 1 hr by ELISA relative to control. The data set is classed as cell-based. Conditions: THP-1.
For data set [11] the target is unchanged. As to the kind of experiment: Inhibition of NLRP3 inflammasome activation in LPS-stimulated human THP1 cells assessed as reduction in IL-1beta secretion at 10 uM incubated for 1 hr followed by nigericin addition and measured after 1 hr by ELISA relative to control. The format is cell-based. To be noted: THP-1.
The target in data set [12] is T1, P2X purinoceptor 7 (Homo sapiens) (UniProt Q99572).
T1 sequence (whole entry): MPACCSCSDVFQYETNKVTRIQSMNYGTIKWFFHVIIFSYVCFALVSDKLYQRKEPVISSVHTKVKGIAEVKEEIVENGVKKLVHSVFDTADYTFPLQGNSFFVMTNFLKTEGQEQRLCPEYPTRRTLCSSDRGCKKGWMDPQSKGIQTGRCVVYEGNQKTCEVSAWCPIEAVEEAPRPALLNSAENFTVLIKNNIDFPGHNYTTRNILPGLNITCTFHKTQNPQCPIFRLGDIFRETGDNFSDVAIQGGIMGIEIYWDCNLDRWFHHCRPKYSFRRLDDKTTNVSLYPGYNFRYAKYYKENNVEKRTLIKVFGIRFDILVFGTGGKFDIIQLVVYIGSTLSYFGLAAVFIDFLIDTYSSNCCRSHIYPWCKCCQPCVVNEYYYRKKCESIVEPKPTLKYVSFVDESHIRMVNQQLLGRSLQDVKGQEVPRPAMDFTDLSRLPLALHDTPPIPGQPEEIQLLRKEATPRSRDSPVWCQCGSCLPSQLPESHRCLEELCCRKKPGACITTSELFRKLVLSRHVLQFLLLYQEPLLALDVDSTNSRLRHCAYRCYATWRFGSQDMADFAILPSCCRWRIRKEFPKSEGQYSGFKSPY
As to the kind of experiment: Modulation of P2X7 receptor in nigericin-stimulated human THP1 cells assessed as intracellular potassium efflux at 10 uM incubated for 30 mins followed by 1 uM nigericin challenge and measured after 30 mins by Green-2 AM dye based flow cytometric analysis (reference value: 27.1%). The format is cell-based. Conditions: THP-1. (In general: Flow cytometry measures light scatter and fluorescence of single cells or particles in a stream.)

The target of data set [13] is T1, P2X purinoceptor 7 (Homo sapiens). As to the kind of experiment: Modulation of P2X7 receptor in nigericin-stimulated human THP1 cells assessed as intracellular potassium efflux at 10 uM incubated for 30 mins followed by 5 uM nigericin challenge and measured after 30 mins by Green-2 AM dye based flow cytometric analysis (reference value: 27.1%). The format is cell-based. Conditions: THP-1.

Data set [14] shares this target. As to the kind of experiment: Modulation of P2X7 receptor in nigericin-stimulated human THP1 cells assessed as intracellular potassium efflux at 10 uM incubated for 30 mins followed by 10 uM nigericin challenge and measured after 30 mins by Green-2 AM dye based flow cytometric analysis (reference value: 27.1%). The format is cell-based. To be noted: THP-1.
For data set [15] the target is unchanged. Kind of data set: Modulation of P2X7 receptor in LPS-stimulated human THP1 cells assessed as LPS-nigericin-stimulated intracellular potassium efflux at 1 uM incubated for 1 hr followed by nigericin challenge and measured after 1 hr by Green-2 AM dye based flow cytometric analysis (reference value: 29%). The format is cell-based. To be noted: THP-1.
Data set [16] shares this target. Kind of data set: Modulation of P2X7 receptor in LPS-stimulated human THP1 cells assessed as LPS-nigericin-stimulated intracellular potassium efflux at 10 uM incubated for 1 hr followed by nigericin challenge and measured after 1 hr by Green-2 AM dye based flow cytometric analysis (reference value: 29%). The format is cell-based. To be noted: THP-1.
Data set [17] relates to THP-1. As to the kind of experiment: Modulation of intracellular calcium release in LPS-stimulated human THP1 cells at 1 to 100 uM incubated for 1 hr followed by nigericin challenge and measured after 1 hr by Fluo-3dye based flow cytometric analysis. The data set is classed as functional, cell-based.

Sequence of NACHT, LRR and PYD domains-containing protein 3 (Homo sapiens) (Q96P20 whole entry, the tested form may be a part): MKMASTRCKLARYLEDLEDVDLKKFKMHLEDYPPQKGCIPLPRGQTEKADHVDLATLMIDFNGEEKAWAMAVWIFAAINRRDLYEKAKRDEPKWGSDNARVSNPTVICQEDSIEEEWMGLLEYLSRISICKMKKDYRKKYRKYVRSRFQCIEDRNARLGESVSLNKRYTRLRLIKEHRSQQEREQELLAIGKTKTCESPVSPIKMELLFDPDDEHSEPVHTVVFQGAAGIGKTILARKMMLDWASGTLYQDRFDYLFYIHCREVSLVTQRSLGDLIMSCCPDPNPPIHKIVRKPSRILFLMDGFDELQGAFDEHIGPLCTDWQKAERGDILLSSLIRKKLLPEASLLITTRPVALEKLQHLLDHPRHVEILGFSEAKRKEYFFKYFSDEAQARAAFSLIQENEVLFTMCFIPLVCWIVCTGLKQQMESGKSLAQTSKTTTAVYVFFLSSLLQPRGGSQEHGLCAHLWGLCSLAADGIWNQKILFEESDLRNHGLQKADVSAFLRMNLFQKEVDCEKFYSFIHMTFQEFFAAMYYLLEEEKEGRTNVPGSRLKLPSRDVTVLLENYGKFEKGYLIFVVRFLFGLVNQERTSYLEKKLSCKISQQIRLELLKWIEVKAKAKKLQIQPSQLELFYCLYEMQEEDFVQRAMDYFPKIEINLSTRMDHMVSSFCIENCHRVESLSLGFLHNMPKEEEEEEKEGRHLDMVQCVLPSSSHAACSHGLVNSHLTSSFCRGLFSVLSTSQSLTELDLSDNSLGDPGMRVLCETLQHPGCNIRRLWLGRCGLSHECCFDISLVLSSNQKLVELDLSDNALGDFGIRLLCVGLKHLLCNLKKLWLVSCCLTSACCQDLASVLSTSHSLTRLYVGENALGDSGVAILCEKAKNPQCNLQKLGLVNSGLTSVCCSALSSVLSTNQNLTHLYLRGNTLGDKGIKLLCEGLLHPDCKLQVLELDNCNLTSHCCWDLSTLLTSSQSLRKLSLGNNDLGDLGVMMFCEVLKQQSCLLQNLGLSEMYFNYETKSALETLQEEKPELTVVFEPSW

Turning to `C=C1C(=O)[C@]23[C@H](O)[C@H]1CC[C@H]2[C@@]12CO[C@]3(O)[C@@H](O)[C@@H]1C(C)(C)CC[C@@H]2O` [ORIDONIN], the Activity with THP-1 [1] was determined as 777.2 pg/mL.
Same read-out and setting: for `CC(C)(O)c1coc(S(=O)(=O)NC(=O)Nc2c3c(cc4c2CCC4)CCC3)c1` the value was 957.6 pg/mL.
With `C=C(C)[C@@H]1CCC(C)=C[C@H]1c1c(O)cc(CCCCC)cc1O` [CANNABIDIOL], in [2], the viability at 24 h, 0.1 µM came out at 96.5%. Also, the viability at 24 h, 1 µM in data set [3] was 97.6%. In addition, the viability at 24 h, 10 µM in data set [4] was found to be 103%. Also, in data set [5], the viability at 24 h, 100 µM is 99.9%. Moreover, the viability at 24 h, up to 100 µM in data set [6] is above 97%. For the same compound, the Activity in the data set with THP-1 [7] came out at 32.9 pg/mL; with THP-1 [1] it was 661.9 pg/mL; in data set [12] it was 16.1%; in data set [13], 13.1%; in data set [14] it was 12.4%; in [15], 20%. Further, the Activity in [16] amounted to 16%. For the same compound, the outcome in the data set on THP-1 [8] and in the data set on THP-1 [17] was inactive. The inhibition in data set [9] is 63.9%; in data set [10], 64.1%; in data set [11], 83.1%.

(Values after ChEMBL document CHEMBL4619755 (J Nat Prod, 2020).)
